Results taken from article PMC6085350, “Small molecule inhibitors of RAS-effector protein interactions derived using an intracellular antibody fragment” (Nature Communications, 2018).
“Also recorded” adds a separate entry of the source.

Key:
[1] = molecular target: T1, KRAS^G12V-GppNHp + scFv complex (Homo sapiens, UniProt P01116, G12V); test: waterLOGSY NMR competition with anti-RAS scFv; format: binding
T1 construct: GST (N); made in house; host or cells: E. coli
Experimental: The waterLOGSY NMR method[35] was used to measure RAS ligand interaction. WaterLOGSY experiments were conducted at a ^1H frequency of 600 MHz using a Bruker Avance spectrometer equipped with a BBI probe. All experiments were conducted at 298 K, 3 mm diameter NMR tubes with a sample final volume of 200 µl was used in all experiments. Solutions were buffered using an H2O 10 mM PBS, 5 mM MgCl2 buffer corrected to pH 7.4. The sample preparation is exemplified as follows, the compound (10 µl of a […] solution in DMSO-d6) was added to an eppendorf before sequential addition of the H2O PBS buffer (163.6 µl), D2O (20 µl), and protein (6.4 µl, 311.8 µM). The resulting solution was spun to ensure full mixing and transferred to a 3 mm NMR tube before running the experiment. For a competition experiment using Y6-scFv or VH, the preparation was carried out in a similar manner; the compound (10 µl of a 10 mM solution in DMSO-d6) was added to an eppendorf before sequential addition of the H2O PBS buffer (146.4 µl), D2O (20 µl), protein (6.4 µl, 311.8 µM) and Y6-ScFv (17.2 µl, 116.6 µM) with a ratio of 5.5:1:1. The resulting solution was spun and transferred to a 3 mm NMR tube before the run. […]
Supplementary Figure 3: Abd-2 WaterLOGSY NMR with and without anti RAS-scFV Abd-2 was analyzed by waterLOGSY. […]

PI3KC2 = test: Kinase panel (KinaseProfiler), first PI3KC2 line; format: biochemical, human; details: PI3KC2 (first of two lines), 10μM
Experimental: Experiments were performed by Eurofins Pharma Discovery Services. The KinaseProfiler™ assay protocol guide can be downloaded from their website: www.eurofins.com/discoveryservices. The guide contains information on the buffer conditions, substrate and reference inhibitor blank used for each kinase.
Supplementary Table 3. Assessment of potential interaction of Abd-7 with a human kinase
Kinase % kinase activity in
A panel of 14 Kinases (relevant to the RAS pathway) has been screened against Abd-7
(10μM) and the kinase activity was measured. […] of activity was observe for all
function of the selected and RAS relevant kinase proteins.

[2] = test system: ERK1/2 phosphorylation in H358 cells (KRAS^G12C); test: Biomarker phosphorylation assay, pERK, H358; format: cell-based, human; details: H358, 2-20 μM, 3 h, EGF 10 min
Experimental: Fig. 5 Abd-7 results on RAS-dependent signalling pathways and cell viability. a, b DLD-1 (a) or H358 (b) cells were serum-starved for 24 h, incubated in mono-layer with Abd-7 in a range from 2, 5, 10 and 20 μM for 3 h and stimulated with EGF 10 min. Proteins were extracted and separated by SDS-PAGE and transferred to membranes for Western analysis with anti-pAKT, anti-pERK, anti-pan AKT and anti-pan ERK. Anti-cyclophilin B antibody was the loading control. Signal was developed using standard ECL. c–e Effects of compounds Abd-2, Abd-4, Abd-5, Abd-6, and Abd-7 on the viability of human cancer cells lines was assessed for a 2-D culture of DLD-1 (mutant KRAS^G13D) cells and HT1080 cells (mutant NRAS^Q61K). The cells were treated with a dose range from 0 μM to 20 μ and incubated for 72 h when cell viability was assessed using CellTitreGlo. […] Each experiment was repeated at least three times (a, b) and four times (c, d). Where error bars are presented, they correspond to mean values ± SD of biological repeats
A total of 450,000 DLD1 or 640,000 H358 cells were seeded per well of a six well plate. Approximately, 20 h later, the medium was removed, the cells washed twice with PBS and DMEM without FBS was added and left for 24 h. […] Cell lysates were sonicated with a Branson Sonifier and the protein concentrations determined by using the Pierce BCA protein assay kit (Thermo-Fisher). […]

Compound | binding to KRAS^G12V-GppNHp in the presence of anti-RAS scFv (waterLOGSY) [1] | % kinase activity in the presence of Abd-7 (PI3KC2) [%] | inhibition of ERK1/2 phosphorylation [2]
O=C(NCC1COc2ccccc2O1)c1ccco1 (stereo not drawn) [Abd-2] | no longer binds; also recorded: no binding | – | –
COc1nc(-c2cccc3c2OCCO3)ccc1Nc1ccc(CN(C)C)cc1 [Abd-7] | – | 102 | diminution of pERK levels
